Our source for the EC50, selectivity ratio and CC50 values is ChEMBL document CHEMBL1811789, “Synthesis and biological evaluation of (±)-benzhydrol derivatives as potent non-nucleoside HIV-1 reverse transcriptase inhibitors” (Bioorg Med Chem, 2011).

Where only a bound is given, the exact number is not on record here.

For data set [1], the system named is Human immunodeficiency virus 1. Put plainly: Antiviral activity against wild type HIV1 3B infected in human C8166 cells assessed as inhibition of viral-induced cytopathogenicity after 3 days by syncytium formation assay. The format is functional, organism-based. As to conditions: Human immunodeficiency virus 1, 3B, C8166, 72 h. (In general: Protection from cytopathic effect is a common read-out in antiviral testing.)

Data set [2] has as its system Human immunodeficiency virus 1. Put plainly: Antiviral activity against […] HIV1 A17 harboring reverse transcriptase K103N and Y181C mutant infected in human C8166 cells assessed as inhibition of viral-induced cytopathogenicity after 3 days by syncytium formation assay. The class given is functional, organism-based. The note with it: Human immunodeficiency virus 1, A17, C8166, 72 h.

A short description of data set [3]: Selectivity index, ratio of CC50 for human C8166 cells to EC50 for wild type HIV1 3B. The class given is toxicity, cell-based. As to conditions: read-out: Ratio CC50/EC50.
Data set [4] in a line: Cytotoxicity against human C8166 cells by MTT assay. The class given is cell-based. (Formazan colour is commonly taken as a measure of viable cells.)

In the case of `Cc1cc(S(N)(=O)=O)ccc1NC(=O)COc1ccc(Cl)cc1C(=O)c1cc(Cl)cc(C#N)c1`, the EC50 (in general, the concentration at which the effect is half-maximal) turned out to be 0.00069 µM in data set [1] and 0.0014 µM in data set [2]. The selectivity ratio in data set [3] is greater than 563000. The CC50 (in general, the concentration at which the toxic effect on the cells reaches its halfway point) in data set [4] is greater than 387 µM.
`Cc1cc(S(N)(=O)=O)ccc1NC(=O)COc1ccc(Cl)cc1C(O)c1ccc(Cl)cc1Cl` (racemic): the results for the EC50 in data set [1] and in data set [2] were 2.92 µM and 33.6 µM, respectively. The selectivity ratio in data set [3] is 13.7. Moreover, the CC50 in data set [4] came out at 39.9 µM.
As for `Cc1cc(S(N)(=O)=O)ccc1NC(=O)COc1ccc(Cl)cc1C(O)c1ccccc1` (racemic), the EC50 in data set [1] stood at 1.12 µM; in data set [2] it was 16.5 µM. The selectivity ratio in data set [3] worked out at 29.9. In addition, half-maximal cytotoxicity in data set [4] (CC50) was put at 33.4 µM.
As for `Cc1cc(S(N)(=O)=O)ccc1NC(=O)COc1ccc(Cl)cc1C(O)c1ccccc1C` (racemic), the EC50 in data set [1] was 1.21 µM; in data set [2], 20.8 µM. In addition, the selectivity ratio in data set [3] came out at 28. Further, the CC50 in data set [4] was 33.9 µM.
As for `Cc1cccc(C(O)c2cc(Cl)ccc2OCC(=O)Nc2ccc(S(N)(=O)=O)cc2C)c1` (racemic), the EC50 in data set [1] is 0.48 µM; in data set [2], 9.7 µM. Moreover, the selectivity ratio in data set [3] was 69. It took 33.1 µM to reach half-maximal cytotoxicity in data set [4] (CC50).
Regarding `Cc1ccc(C(O)c2cc(Cl)ccc2OCC(=O)Nc2ccc(S(N)(=O)=O)cc2C)cc1` (racemic), the EC50 in data set [1] turned out to be 0.65 µM; in data set [2], 13.4 µM. For the same molecule, the selectivity ratio in data set [3] worked out at 59.3. The molecule further came in with a 50% cytotoxic concentration (CC50) in data set [4] of 38.7 µM.
Turning to `Cc1cc(S(N)(=O)=O)ccc1NC(=O)COc1ccc(Cl)cc1C(O)c1ccccc1Cl` (racemic), the results for the EC50 in data set [1] and in data set [2] were 1.3 µM and 20.4 µM, respectively. Besides, the selectivity ratio in data set [3] was 24.6. This molecule showed a CC50 in data set [4] of 32 µM.
`Cc1cc(S(N)(=O)=O)ccc1NC(=O)COc1ccc(Cl)cc1C(O)c1cccc(Cl)c1` (racemic): the EC50 was 0.72 µM in data set [1] and 13 µM in data set [2]. Moreover, the selectivity ratio in data set [3] came to 46.4. In addition, in data set [4], it took 33.2 µM to reach half-maximal cytotoxicity (CC50).
For `Cc1cc(S(N)(=O)=O)ccc1NC(=O)COc1ccc(Cl)cc1C(O)c1cccc(F)c1` (racemic), the EC50 in data set [1] was found to be 0.48 µM; in data set [2], 6.61 µM. In addition, the selectivity ratio in data set [3] came to 78.5. In data set [4], this molecule registered a half-maximal cytotoxic concentration (CC50) of 37.6 µM.
Consider `Cc1cc(S(N)(=O)=O)ccc1NC(=O)COc1ccc(Cl)cc1C(O)c1cccc([N+](=O)[O-])c1` (racemic), for which the EC50 is 0.12 µM in data set [1] and 4.34 µM in data set [2]. For the same molecule, the selectivity ratio in data set [3] came to 313. Besides, the CC50 in data set [4] was found to be 36.9 µM.
Take `Cc1cc(S(N)(=O)=O)ccc1NC(=O)COc1ccc(Cl)cc1C(O)c1cccc(C)c1C` (racemic): the EC50 in data set [1] is 9.02 µM; in data set [2], 216 µM. Further, the selectivity ratio in data set [3] amounted to 24.1. In data set [4], this molecule yielded a CC50 of 218 µM.
On to `Cc1ccc(C(O)c2cc(Cl)ccc2OCC(=O)Nc2ccc(S(N)(=O)=O)cc2C)c(C)c1` (racemic), for which the results for the 50% effective concentration (EC50) in data set [1] and in data set [2] were 4.27 µM and 40.4 µM, respectively. Also, the selectivity ratio in data set [3] worked out at 6.18. It took 26.4 µM to reach half-maximal cytotoxicity in data set [4] (CC50).
Regarding `Cc1ccc(C)c(C(O)c2cc(Cl)ccc2OCC(=O)Nc2ccc(S(N)(=O)=O)cc2C)c1` (racemic), the EC50 came out at 0.81 µM in data set [1] and 14.3 µM in data set [2]. In data set [3], the selectivity ratio is 43.7. Also, in data set [4], the CC50 is 35.5 µM.
Consider `Cc1cc(C)cc(C(O)c2cc(Cl)ccc2OCC(=O)Nc2ccc(S(N)(=O)=O)cc2C)c1` (racemic), for which the EC50 in data set [1] was determined as 0.18 µM; in data set [2] it was 2.08 µM. Also, the selectivity ratio in data set [3] was 166. In data set [4], this molecule showed a half-maximal cytotoxic concentration (CC50) of 29.4 µM.
As for `Cc1cc(S(N)(=O)=O)ccc1NC(=O)COc1ccc(Cl)cc1C(O)c1cc(Cl)ccc1Cl` (racemic), the EC50 in data set [1] amounted to 1.06 µM; in data set [2], 9.58 µM. Moreover, in data set [3], the selectivity ratio turned out to be 34.2. The same molecule came in with a CC50 in data set [4] of 36.2 µM.
`Cc1cc(S(N)(=O)=O)ccc1NC(=O)COc1ccc(Cl)cc1C(O)c1ccc(Cl)c(Cl)c1` (racemic): the EC50 was 2.15 µM in data set [1] and 31.6 µM in data set [2]. Also, the selectivity ratio in data set [3] came to 11.2. Besides, it took 24 µM to reach half-maximal cytotoxicity in data set [4] (CC50).
For `Cc1cc(S(N)(=O)=O)ccc1NC(=O)COc1ccc(Cl)cc1C(O)c1cc(Cl)cc(Cl)c1` (racemic), the EC50 in data set [1] came to 1.06 µM; in data set [2], 9.45 µM. In addition, in data set [3], the selectivity ratio was determined as 12.4. Further, in data set [4], the midpoint of cytotoxicity, the CC50, lay at 13.1 µM.
For `Cc1cc(S(N)(=O)=O)ccc1NC(=O)COc1ccc(Cl)cc1C(O)c1cc(Cl)cc(Br)c1` (racemic), the half-maximal effective concentration (EC50) was 0.54 µM in data set [1] and 7.79 µM in data set [2]. Besides, the selectivity ratio in data set [3] stood at 42.4. Besides, the CC50 in data set [4] amounted to 22.9 µM.
On to `Cc1cc(S(N)(=O)=O)ccc1NC(=O)COc1ccc(Cl)cc1C(O)c1cc(Cl)cc(C#N)c1` (racemic), for which the concentration for a half-maximal effect (EC50) in data set [1] came out at 0.39 µM; in data set [2], 6.84 µM. In addition, the selectivity ratio in data set [3] stood at 80.8. Moreover, the CC50 in data set [4] turned out to be 31.6 µM.
As to `Cc1cc(S(N)(=O)=O)ccc1NC(=O)COc1ccc(Cl)cc1C(O)c1cccc2ccccc12` (racemic), the EC50 stood at 0.39 µM in data set [1] and 8.47 µM in data set [2]. Further, the selectivity ratio in data set [3] was 80.1. Further, the CC50 in data set [4] was 31.1 µM.
For `Cc1cc(S(N)(=O)=O)ccc1NC(=O)COc1ccc(Cl)cc1C(O)c1ccc2ccccc2c1` (racemic) the same measures were 1.09 µM, 10.7 µM, 14.3 and 15.7 µM.
Consider `Cc1cn([C@H]2C[C@H](N=[N+]=[N-])[C@@H](CO)O2)c(=O)[nH]c1=O` [ZIDOVUDINE], for which the EC50 in data set [2] was found to be 0.023 µM. In addition, the selectivity ratio in data set [3] amounted to 422000.
